According to US9040261B2, “Compounds as L-cystine crystallization inhibitors and uses thereof” (NEW YORK UNIVERSITY, priority 2009, dated 2015):
Where a name gives a salt, the structure may show the parent alone.

Legend:
[1] = pH 7, 25° C.; cited from earlier work
[2] = Real time in situ AFM step velocity measurements, static conditions; settings: 5 g/L cystamine
Description: A Digital Instruments (Santa Barbara, Calif.) Nanoscope IIIa Multimode system was used for topographical and lattice imaging. All measurements were performed in contact mode using Veeco NP_B Si3N4 cantilever tips with a spring constant of 0.12N/m (triangular, 196 μm length, 41 μm width) on a glass cantilever holder, and a liquid cell was created for in situ step velocity measurements. All L-cystine crystals for AFM measurements were prepared by method 1. Crystals were transferred onto an AFM specimen disk coated with partially cured (1 hr) UV-curable optical cement (Type SK-9, EMS Acquisition Corp.) by gently pressing the disk against hexagonal platelets or L-cystine needles isolated by filtration (Whatman Nuclepore membrane, 8 μm). The (0001) face of hexagonal platelets was exposed normal to the disk for AFM analysis with growth occurring along equivalent {1010} faces in the lateral directions, while the sides of L-cystine needles were exposed normal to the disc. The partially cured polymer with adhered crystals was completely cured by additional UV radiation (2 hrs) prior to analysis. Measurements of individual step heights for hexagonal L-cystine crystals were acquired in air (contact mode) at a scan rate of 1.00 Hz and 256 samples per line over a 15×15 μm^2 surface area. Integral and proportional gains were set to the highest possible values without obtaining feedback. Four hexagonal crystals (5 areas per crystal) were analyzed for statistical step height distributions, which were calculated from >10^3 individual steps. Lattice-resolved images of crystal surfaces were acquired in water (contact mode) using a scan rate of 112 Hz over a 12×12 nm^2 area.
Real time in situ step velocity measurements of L-cystine growth were assessed along six structurally-equivalent {1010} faces of the hexagonal structure. A liquid cell was created with the glass cantilever tip holder, and working solutions were injected through a 1-mL syringe. Prior to injecting the growth medium (i.e. supersaturated L-cystine solution), crystals were etched with deionized water in the fluid cell for one hour to remove amorphous deposits or impurities that may be present on the surface. Supersaturated solutions (0.5 g/L) were generated by adding L-cystine to deionized water, boiling the solution on a heating mantle for 20 min to completely dissolve the solute, and allowing the solution to cool for 20 min on the heating mantle before transferring the solution (via syringe) to the AFM fluid cell. […]
The effect of additives on crystal growth rates was investigated. […] For each measurement, growth was first assessed in the absence of additive, then in the presence of additive on the identical area of the crystal surface to analyze relative changes in step velocity. […]

[3] = Bulk crystallization of L-cystine in the presence of additives (mass yield); settings: 2 mg/L additive, 0.7 g/L L-cystine (pH 6.8); no additive 80; approximate error ±8%
Description: Alternately, the hexagonal crystals can be obtained by crystallization performed near neutral pH (Sa) The hexagonal form was crystallized from a supersaturated L-cystine solution prepared by adding 70 mg of L-cystine to 100 mL of deionized water (3 mM), and heating under reflux at 100° C. for 20 min with stirring to completely dissolve L-cystine. […] This concentration was used for bulk crystallization studies in the presence of additives so that a measurable amount of bulk crystals could be obtained in a reasonable time. The solution was then allowed to cool slowly with stirring for 75 min. 30 mL aliquots were transferred to separate glass containers, which were then sealed to prevent evaporation and exposure to airborne particulates and stored for 72 hours at room temperature without stirring. […] The crystals retrieved in this manner were used for AFM studies by mounting individual crystals according to the procedure described below.
Various proteins, poly-amino acids, and molecular mimics of L-cystine were examined as additives. The aforementioned procedure for hexagonal platelet crystallization was repeated. Following the 75 min cooling period, prior to any observable crystallization, the additive was added to the supersaturated L-cystine solution to the desired concentration. […] Crystallization without additive was performed in an identical manner for comparison using a control solution from the same batch. The mass yields of L-cystine crystals were obtained by dividing the mass of L-cystine crystals (collected from growth solution by filtration) by the mass of L-cystine added in the growth solution.
Additives chosen for these studies were various proteins, poly-amino acids, and molecular mimics of L-cystine (see Table 1). The above procedure for hexagonal platelet crystallization was repeated until completion of the 75 min cooling period, at which point 29.5 g of solution was transferred to a 100 mL beaker containing 0.5 g of separately prepared additive solution to yield net concentrations of 2 mg/L additive and 0.7 g/L L-cystine. Additive solutions were replaced with deionized water of equivalent volume for control measurements. […]
L-cystine bulk crystallization was investigated in the presence of various polymers, urinary constituents, fish antifreeze proteins (AFPs), and L-cystine derivatives (i.e. structural mimics of L-cystine), which were analyzed as possible growth inhibitors of hexagonal L-cystine. The potency of each additive was assessed by comparing the difference in crystal yield (Table 1), which is equal to the mass of crystals formed in the presence of 2 mg/L additive (isolated with […]) divided by the total mass of L-cystine (700 mg/L).

Structure (SMILES)	solubility of L-cystine in water [1]	reduction of step velocity relative to the control [2]	Step velocity ([2]; 0.5 g/L L-cystine, 25° C., static, without additive ~29 nm/min, independent of step height)	Yield (%) = (collected mass by filtration, >11 μm)/(total mass added) × 100% [3]
N[C@@H](CSSC[C@H](N)C(=O)O)C(=O)O [L-cystine]	400 to 700 µM			
NCCSSCCN [Cystamine, cystamine dihydrochloride, reference compound]		36%	18 ± 3 nm/min	30%
